Experimental data published in patent US20180369264A1, “COMBINATION OF A CARDIAC STEROID AND AN AKT INHIBITOR FOR THE TREATMENT OF CARDIOVASCULAR DISEASES AND DISORDERS” (YISSUM RESEARCH DEVELOPMENT COMPANY OF THE HEBREW …, priority 2015, published 2018).
Where two headings read alike, the source gives them in different places.

Columns and labels:
[1] = tested on: wild-type zebrafish larvae heart; type: in vivo, zebrafish (Danio rerio)
Method: Experiments were performed on wild-type (WT, AB strain) zebrafish (Danio rerio). The fish were maintained in accordance with the principles established by the NIH. […] The fish were kept in swimming medium (E3 medium) in small aquaria at 28° C. and maintained under a 14h: 10h light:dark cycle. The zebrafish larvae were maintained in the presence of 0.1% methylene blue (M9140, Sigma-Aldrich Inc, Israel) at 28° C. All measurements were taken in embryos at 72 hours post fertilization (hpf).
Ouabain, bufalin, digoxin, acetylcholine, carbachol, […] (pp2) and U0126 (1,4-diamino-2,3-dicyano-1,4-bis(2-aminophenylthio)butadiene) were purchased from Sigma-Aldrich Inc., Israel. The compounds were dissolved in egg water (0.3 g Instant Ocean Salt in distilled water) to a final selected concentration, as specified in the following examples. […]
Filming process Zebrafish larvae heart imaging was performed using an Olympus CKX41 (Japan) […] microscope with ×10 or ×20 magnification, and integrated incandescent illumination. A FastCam imi-tech (Korea) high speed digital camera with 640×480 pixel gray scale image sensor was mounted on the microscope, using ImCam software (IMI Technology, Co. Ltd) for high speed video recording. The larvae were anesthetized by placing them in filming/anesthetizing medium. Each larva in 0.5 ml filming/anesthetizing medium was transferred to a 96-well tissue culture plate at room temperature and sequential images of the heart were obtained, with the larvae positioned on their side, at 80 fps during 10 seconds with a shutter speed of 0.016 seconds.
Physiological parameters of cardiovascular performance, as indicated hereinbelow, were evaluated in the zebrafish larvae. Image analysis applications ImageJ (NIH, USA) were used, allowing the delineation of the endomyocardial border at the end of systole or end of diastole to define the ventricular area. Sequential still frames were analyzed to capture ventricular end-systole and end-diastole images. End Systolic Area (ESA, FIG. 1B) and End Diastolic Area (EDA, FIG. 1C) were used to calculate Fractional Area Change (FAC), according to the equation: FAC=(EDA-ESA)/EDA*100. The Ejection Fraction (EF) was determined by an independent estimate of ventricular volume. This was achieved by placing scan lines across the midventricular short axis (SA) and long axis (LA) at the end of systole (FIG. 1D) and diastole (FIG. 1E). […] EF was then calculated according to the equation: EF=(EDV-ESV)/EDV*100. Heart rate (HR) was measured in beats per minute. Cardiac output (CO) was calculated according to the equation: CO=(EDV-ESV)*HR. A minimum of five sequential pairs of systolic and diastolic cycles were measured and analyzed in 9-12 larvae for each treatment.

[2] = tested on: primary adult zebrafish cardiomyocytes; test: Primary adult zebrafish cardiomyocyte contractility; type: cell-based; conditions: for Amplitude / Contraction Rate (−dv/dt) / Relaxation Rate (+dv/dt): wt, 0.1 nM Oua, 0.5 Hz
Method: Adult (4 to 12-month-old) ventricular myocytes were obtained by enzymatic dissociation (with collagenase II and IV, at 5 mg/ml, each). The zebrafish were stunned by a blow to the head and the brain was pithed. The heart was quickly removed and placed in a small Petri dish containing 10 ml isolation solution: 100 mM NaCl, 10 mM KCl, 1.2 mM KH2PO4, 4 mM MgSO4, 50 mM taurine, 20 mM glucose, and 10 mM Hepes, pH 6.9. The ventricle was cut free from the bulbus and atrium under a binocular. Ventricles from 3 fish were incubated for 45 minutes at 32° C. in a solution containing perfusion buffer (150 mM NaCl, 5.4 mM KCl, 1.5 mM MgSO4, 0.4 mM NaH2PO4, 2 mM CaCl2, 10 mM glucose, and 10 mM Hepes, pH 7.7). Collagenases II and IV (Gibco, NY, USA, 5 mg/ml each) and additional CaCl2 (2.012 mM final concentration) were added. Following Eppendorf centrifugation (1 minute, 250×g at room temperature) the precipitated cells were suspended in 1 ml perfusion buffer for 30 minutes at room temperature before use.
Cells were transferred to a chamber with a quartz base and examined using an inverted epifluorescence microscope (Nikon Diaphot 200, Japan). The myocytes were field-stimulated (0.5 Hz, 70 V, square waves) and contractions were measured using a video motion edge detector (Crescent Electronics, Sandy, Utah, USA) at the rate of 5 Hz. Cardiomyocyte performance was calculated as the percentage of resting cell length. The slopes of contraction and relaxation (+dL/dt and −dL/dt) were calculated from the linear portions of the changes in contractility. 9 cells per each group were measured. Each of the experiments was repeated at least 3 times with identical results.

[3] = type: in vivo, rat; conditions: 10 day post MI
Method: Male Wister rats (150-175 g body weight) were used. Left anterior descending artery (LAD)-ligation was performed in all animals. […] All injected solutions contained 9% DMSO. Heart contractility in-vivo was monitored using echocardiography. At the end of the treatment period, animals were sacrificed and heart and blood samples were harvested for analysis. Blood samples were also collected (from the eye) at baseline and 24 hours post myocardial infarction (MI).
Blood samples were collected from rat eye at baseline and at 24 hrs. Post LAD-ligation. The plasmas of 11 animals were tested for the indicated biomarkers of MI.

[4] = wt larvae, 10 nM MK-2206, 1 nM CS
[5] = pre-incubation 1 nM MK-2206, 0.1 nM ouabain
[6] = Akt inhibitor experiment, 1 nM MK, 20 minutes
[7] = ERK inhibitor experiment, 10 nM PD98059, 20 minutes

With `NC1(c2ccc(-c3nc4ccn5c(=O)[nH]nc5c4cc3-c3ccccc3)cc2)CCC1` [MK-2206] the “effect of inhibitor alone on heart function / basal contractility” value ([1]; PP2 50 nM, U0126 1 μM, MK-2206 10 nM for 2 hours) was “did not affect heart contractility parameters”, the “effect on CS-induced increase in heart contractility (FAC and EF) compared with CS in the absence of the inhibitor” value [1, 4] was “doubling of the CS-induced increase in heart contractility” and the “effect on heart rate of MK-2206 with CS” value [1, 4] was “not accompanied by any effect on heart rate”. The “contractility parameters, inhibitor by itself” value ([2]; 1 nM MK-2206) was “did not affect any of the contractility parameters”, the “enhancement of ouabain-induced augmentation: increase in amplitude” value [2, 5] was 113% and the “enhancement of ouabain-induced augmentation: increase in contraction rise time” value [2, 5] was 183%. The “enhancement of ouabain-induced augmentation: increase in relaxation rise time” value [2, 5] was 169%, the Amplitude [2, 6] was 0.19 ± 0.03 and the “Contraction Rate (−dv/dt)” value [2, 6] was 0.98 ± 0.19. For the same compound, the “Relaxation Rate (+dv/dt)” value [2, 6] was 0.87 ± 0.20, the CPK [3] was 363.5 ± 88.59 unit/L and the Trop-T [3] was 0.07 ± 0.06 ng/mL.
With `C[C@@H]1O[C@@H](O[C@H]2C[C@@H](O)[C@]3(CO)[C@H]4[C@H](O)C[C@]5(C)[C@@H](C6=CC(=O)OC6)CC[C@]5(O)[C@@H]4CC[C@]3(O)C2)[C@H](O)[C@H](O)[C@H]1O` [ouabain, 3-(alpha-L-Rhamnopyranosyloxy)-1beta,5beta,11alpha,14,19-pentahydroxy-5beta-card-20(22)-enolide] the “maximal increase in CO” value ([1]; 0.2 nM, 90 minutes) was 38±3.68%, the “effect on force of contraction” value ([1]; 1 nM) was “increased significantly the force of contraction” and the “effect on heart rate” value ([1]; 1 nM) was “without affecting heart rate”. For the same compound, the “effect on heart rate” value ([1]; 0.05-0.4 nM, 90 minutes) was “no change in heart rate”, the “concentration producing a significant increase in heart contractility” value ([1]; added to larvae swimming medium) was 0.1 nM and the “effect on heart force of contraction (FAC, EF, CO)” value ([1]; low concentrations (ouabain 0.05-0.4 nM), 90 minutes) was “significant increase in the heart force of contraction in a dose-dependent manner”. The increase in contractility ([2]; 0.1 nM ouabain) was “three- to fourfold”, the Amplitude [2, 6] was 0.38 ± 0.05 and the “Contraction Rate (−dv/dt)” value [2, 6] was 1.84 ± 0.28. For the same compound, the “Relaxation Rate (+dv/dt)” value [2, 6] was 1.64 ± 0.23, the Amplitude [2, 7] was 0.53 ± 0.1 and the “Contraction Rate (−dv/dt)” value [2, 7] was 3.65 ± 0.38. For the same compound, the “Relaxation Rate (+dv/dt)” value [2, 7] was 2.92 ± 0.37, the CPK [3] was 616.6 ± 197.6 unit/L and the Trop-T [3] was 0.24 ± 0.17 ng/mL.
